From PubChem BioAssay (NCI)
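Step 1: Grow cells in 96-well plates. Step 2: Expose to compound for 48 hours at 5 concentrations. Step 3: Interpolate endpoints linearly; if unreached, use highest concentration. GI50 = concentration required for 50% inhibition of growth. TGI marks complete inhibition of growth.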

Columns and labels:
Test in all cases: NCI-60 cell line screen, 48 h
786-0 renal = tested on: 786-0 renal
A498 renal = tested on: A498 renal
A549 NSCLC = tested on: A549 NSCLC
ACHN renal = tested on: ACHN renal
BT-549 breast = tested on: BT-549 breast
CAKI-1 renal = tested on: CAKI-1 renal
CCRF-CEM leukemia = tested on: CCRF-CEM leukemia
COLO 205 colon = tested on: COLO 205 colon
DU-145 prostate = tested on: DU-145 prostate
EKVX NSCLC = tested on: EKVX NSCLC
HCC-2998 colon = tested on: HCC-2998 colon
HCT-116 colon = tested on: HCT-116 colon
HCT-15 colon = tested on: HCT-15 colon
HL-60(TB) leukemia = tested on: HL-60(TB) leukemia
HOP-62 NSCLC = tested on: HOP-62 NSCLC
HOP-92 NSCLC = tested on: HOP-92 NSCLC
HS 578T breast = tested on: HS 578T breast
HT29 colon = tested on: HT29 colon
IGROV1 ovarian = tested on: IGROV1 ovarian
K-562 leukemia = tested on: K-562 leukemia
KM12 colon = tested on: KM12 colon
LOX IMVI melanoma = tested on: LOX IMVI melanoma
M14 melanoma = tested on: M14 melanoma
MALME-3M melanoma = tested on: MALME-3M melanoma
MCF7 breast = tested on: MCF7 breast
MDA-MB-231 breast = tested on: MDA-MB-231 breast
MDA-MB-435 = tested on: MDA-MB-435
MDA-MB-468 breast = tested on: MDA-MB-468 breast
MOLT-4 leukemia = tested on: MOLT-4 leukemia
NCI-H226 lung = tested on: NCI-H226 lung
NCI-H23 lung = tested on: NCI-H23 lung
NCI-H460 lung = tested on: NCI-H460 lung
NCI-H522 lung = tested on: NCI-H522 lung
NCI/ADR-RES ovarian = tested on: NCI/ADR-RES ovarian
OVCAR-3 ovarian = tested on: OVCAR-3 ovarian
OVCAR-4 ovarian = tested on: OVCAR-4 ovarian
OVCAR-5 ovarian = tested on: OVCAR-5 ovarian
OVCAR-8 ovarian = tested on: OVCAR-8 ovarian
PC-3 prostate = tested on: PC-3 prostate
RPMI-8226 leukemia = tested on: RPMI-8226 leukemia
RXF 393 renal = tested on: RXF 393 renal
SF-268 CNS = tested on: SF-268 CNS
SF-295 CNS = tested on: SF-295 CNS
SF-539 CNS = tested on: SF-539 CNS
SK-MEL-2 melanoma = tested on: SK-MEL-2 melanoma
SK-MEL-28 melanoma = tested on: SK-MEL-28 melanoma
SK-MEL-5 melanoma = tested on: SK-MEL-5 melanoma
SK-OV-3 ovarian = tested on: SK-OV-3 ovarian
SN12C renal = tested on: SN12C renal
SNB-19 CNS = tested on: SNB-19 CNS
SNB-75 CNS = tested on: SNB-75 CNS
SR leukemia = tested on: SR leukemia
SW-620 colon = tested on: SW-620 colon
T-47D breast = tested on: T-47D breast
TK-10 renal = tested on: TK-10 renal
U251 CNS = tested on: U251 CNS
UACC-257 melanoma = tested on: UACC-257 melanoma
UACC-62 melanoma = tested on: UACC-62 melanoma
UO-31 renal = tested on: UO-31 renal

## N#Cc1c(NC(=O)c2ccc(C(F)(F)F)cc2)sc2c1CCC(=O)C2
786-0 renal
  GI50: 2500 nM
  TGI: > 41200 nM
A498 renal
  GI50: 24600 nM
  TGI: 87500 nM
A549 NSCLC
  GI50: 3520 nM
  TGI: 16300 nM
ACHN renal
  GI50: 390 nM
  TGI: 1400 nM
BT-549 breast
  GI50: 1070 nM
  TGI: 2510 nM
CAKI-1 renal
  GI50: 572 nM
  TGI: 2060 nM
CCRF-CEM leukemia
  GI50: 345 nM
  TGI: > 33300 nM
COLO 205 colon
  GI50: 951 nM
  TGI: 2330 nM
DU-145 prostate
  GI50: 3750 nM
  TGI: > 100000 nM
EKVX NSCLC
  GI50: 1320 nM
  TGI: 3660 nM
HCC-2998 colon
  GI50: 1430 nM
  TGI: 2930 nM
HCT-116 colon
  GI50: 359 nM
  TGI: 2090 nM
HCT-15 colon
  GI50: 362 nM
  TGI: 1450 nM
HL-60(TB) leukemia
  GI50: 436 nM
  TGI: > 33200 nM
HOP-62 NSCLC
  GI50: 2840 nM
  TGI: 11400 nM
HOP-92 NSCLC
  GI50: 1190 nM
  TGI: 3560 nM
HS 578T breast
  GI50: 1170 nM
  TGI: 5020 nM
HT29 colon
  GI50: 465 nM
  TGI: 2060 nM
IGROV1 ovarian
  GI50: 1230 nM
  TGI: 2740 nM
K-562 leukemia
  GI50: 316 nM
KM12 colon
  GI50: 1280 nM
  TGI: 4700 nM
LOX IMVI melanoma
  GI50: 350 nM
  TGI: 1480 nM
M14 melanoma
  GI50: 1010 nM
  TGI: 2850 nM
MALME-3M melanoma
  GI50: 1150 nM
  TGI: 2730 nM
MCF7 breast
  GI50: 553 nM
  TGI: 10100 nM
MDA-MB-231 breast
  GI50: 701 nM
  TGI: 1980 nM
MDA-MB-435
  GI50: 1400 nM
  TGI: 2970 nM
MDA-MB-468 breast
  GI50: 557 nM
  TGI: 2270 nM
MOLT-4 leukemia
  GI50: 419 nM
  TGI: > 30100 nM
NCI-H226 lung
  GI50: 2180 nM
  TGI: 7910 nM
NCI-H23 lung
  GI50: 402 nM
  TGI: 2090 nM
NCI-H460 lung
  GI50: 2860 nM
  TGI: 11800 nM
NCI-H522 lung
  GI50: 273 nM
  TGI: 951 nM
NCI/ADR-RES ovarian
  GI50: 718 nM
  TGI: 2930 nM
OVCAR-3 ovarian
  GI50: 844 nM
  TGI: 3200 nM
OVCAR-4 ovarian
  GI50: 1120 nM
  TGI: 2780 nM
OVCAR-5 ovarian
  GI50: 1680 nM
  TGI: 3500 nM
OVCAR-8 ovarian
  GI50: 1390 nM
  TGI: 5900 nM
PC-3 prostate
  GI50: 410 nM
  TGI: 2790 nM
RPMI-8226 leukemia
  GI50: 273 nM
  TGI: > 100000 nM
RXF 393 renal
  GI50: 271 nM
  TGI: 1230 nM
SF-268 CNS
  GI50: 2160 nM
  TGI: 11500 nM
SF-295 CNS
  GI50: 1290 nM
  TGI: 2960 nM
SF-539 CNS
  GI50: 300 nM
  TGI: 1060 nM
SK-MEL-2 melanoma
  GI50: 2070 nM
  TGI: 4890 nM
SK-MEL-28 melanoma
  GI50: 820 nM
  TGI: 2110 nM
SK-MEL-5 melanoma
  GI50: 1350 nM
  TGI: 2640 nM
SK-OV-3 ovarian
  GI50: 2430 nM
  TGI: 6870 nM
SN12C renal
  GI50: 539 nM
  TGI: 3200 nM
SNB-19 CNS
  GI50: 2200 nM
  TGI: 13100 nM
SNB-75 CNS
  GI50: 1910 nM
  TGI: 5250 nM
SR leukemia
  GI50: 522 nM
  TGI: > 100000 nM
SW-620 colon
  GI50: 411 nM
  TGI: 1820 nM
T-47D breast
  GI50: 322 nM
  TGI: 1380 nM
TK-10 renal
  GI50: 1050 nM
  TGI: 6850 nM
U251 CNS
  GI50: 622 nM
  TGI: 2470 nM
UACC-257 melanoma
  GI50: 2150 nM
  TGI: > 22800 nM
UACC-62 melanoma
  GI50: 691 nM
  TGI: 2000 nM
UO-31 renal
  GI50: 467 nM
  TGI: 1700 nM
